Read-outs that look alike come from different tables or passages of the source.
Legend:
HCMV (strain AD169) [1] = assay: Inhibition of HCMV replication, ELISA assay (Hs-68 cells); type: cell-based, Human Cytomegalovirus (HCMV); details: read-out: ELISA CMV EC50
Description: (§1) C) Inhibition of Human Cytomegalovirus (HCMV) Replication
(§2) The effect of compounds on the replication of HCMV has been measured by using an ELISA-based assay (ELISA) and a plaque reduction assay (PRA).
Hs-68 cells (ATCC # CRL 1635) were seeded in 96 well microtiter plates at 10,000 cells/well in 100 μL of DMEM medium (Gibco Canada Inc.) supplemented with 10% fetal bovine serum (FBS, Gibco Canada Inc.). The plates were incubated for 3 days at 37° to allow the cells to reach 80-90% confluency prior to the assay.
The medium was removed from wells by aspiration. The cells then were infected at a multiplicity of infection (MOI) of 0.01 PFU/cell with 50 μL of HCMV (strain AD169, ATCC VR-538) in DMEM medium supplemented with 5% heat inactivated FBS (assay medium). The virus was allowed to adsorb to cells for 2 h at 37°. Following viral adsorption, the medium was removed from the wells by aspiration. The cells were washed twice with 200 μL of assay medium to remove unabsorbed virus. The cells were then incubated with or without 100 μL of appropriate concentrations of test reagent in assay medium. After 8 days of incubation at 37°, the extent of viral replication was determined by an ELISA assay which detects the late structural protein p28 of HCMV.
Eight days after infection, the medium was aspirated from the wells. Non-specific binding sites were blocked by adding 200 μL of phosphate buffered saline containing 1% (w/v) bovine serum albumin (blocking buffer) to each well and incubating the plates for 30 min at room temperature. After removal of the blocking buffer by aspiration, the cells were fixed with 100 μL of cold ethanol-acetone solution (95:5) per well. The plates were placed at -20° for 30 min. The plates were washed 4 times with phosphate buffered saline containing 0.05% (v/v) polyoxyethylene sorbitan monolaurate (Tween®). Thereafter, 100 μL of mAb UL99 (Advanced Biotechnologies Inc., #13-130-100) recognizing HCMV protein p28 was added to each wells and plates were incubated for 2 h at room temperature. The plates were washed four times with 200 μL of the above-noted phosphate buffered saline/Tween-20® solution. The cells were then incubated with 100 μL of sheep anti-mouse IgGγ horseradish peroxidase conjugated for 2 h at room temperature. The plates were then washed four times with 200 μL of above-noted phosphate buffered saline/Tween-20® solution. Thereafter, 100 μL of ortho phenylenediamine dihydrochloride (OPD, Gibco Canada Inc.) solution was added to each well and the plates were agitated on a microplate shaker for 30 min in the dark. Color development was monitored at 450 nm using a microplate spectrophotometer.
The SAS program was used to calculate the % inhibition of viral replication and to generate EC50 values.
The EC50 values obtained according to this assay method for certain thiazolylphenyl derivatives of this invention are listed in the following tables under the heading ELISA CMV.

HSV-1 strain F or KOS = assay: Inhibition of herpes simplex virus (HSV-1) replication in cell culture (BHK-21 cells, glycoprotein C ELISA); type: cell-based
How it was run: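 BHK-21 clone 13 cells infected with HSV-1 F or KOS at MOI 0.05 PFU/cell for 1 h at 37°, washed, then treated with compound in α-MEM/2% FBS for 24 h. Late glycoprotein C quantified by ELISA (mAb C11, HRP/OPD, 450 nm); EC50 from % inhibition.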

HCMV (strain AD169) [2] = assay: Inhibition of HCMV replication, plaque reduction assay (PRA, Hs-68 cells); type: cell-based, Human Cytomegalovirus (HCMV); details: read-out: PRA CMV EC50
Description: as §1, §2
(§3) Hs-68 cells (ATCC # CRL 1635) were seeded in 12-well plates at 83,000 cells/well in 1 mL of DMEM medium (Gibco Canada Inc.) supplemented with 10% fetal bovine serum (FBS, Gibco Canada Inc.). The plates were incubated for 3 days at 37° to allow the cells to reach 80-90% confluency prior to the assay.
(§4) The medium was removed from the cells by aspiration. The cells were then infected with approximately 50 PFU of HCMV (strain AD169, ATCC VR-538) in DMEM medium supplemented with 5% inactivated FBS (assay medium). The virus was allowed to adsorb to cells for 2 h at 37°. Following viral adsorption, the medium was removed from the wells by aspiration. The cells were then incubated with or without 1 mL of appropriate concentrations of test reagent in assay medium. After 4 days of incubation at 37°, the medium was exchanged with fresh medium containing test compound and 4 days later the cells were fixed with 1% aqueous formaldehyde and stained with a 2% crystal violet solution in 20% ethanol in water. Microscopic plaques were counted using a stereomicroscope. Drug effects were calculated as a percent reduction in the number of plaques in the presence of each drug concentration compared to the number observed in the absence of drug. Ganciclovir was used as a positive control in all experiments.
(§5) The EC50 values obtained according to this assay for certain thiazolyl derivatives of this invention are listed in the following tables under the heading PRA CMV.

HSV-1 helicase-primase = target: T1, HSV-1 helicase-primase (Human herpesvirus 1, UniProt P10189+P10236); assay: HSV-1 DNA-dependent ATPase assay (inhibition of HSV-1 helicase-primase); type: biochemical
T1 construct: made in house; host or cells: Sf21 insect cells triply infected with recombinant baculoviruses (UL5, UL8, UL52)
How it was run: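 Holoenzyme (UL5/UL8/UL52) expressed in baculovirus-infected Sf21 cells and purified, used at 3 μg/mL with 4 mM ATP and 25 μM primed M13 ssDNA in HEPES pH 7.5, 5.5 mM MgCl2, 3.3% DMSO. Incubated 20 min at 34°. Released phosphate read by malachite green at 650 nm, and activity taken from net absorbance with versus without inhibitor.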

[3] = Inhibition of HCMV replication, plaque reduction assay (PRA, Hs-68 cells); type: cell-based, Human Cytomegalovirus (HCMV); details: human, read-out: Cytotoxic at this concentration (footnote *, PRA CMV)
Description: as §1, §2, §3, §4, §5

[4] = Human betaherpesvirus 5, AD169, Hs68, Group 1 Table 6 entries
[5] = Human betaherpesvirus 5, AD169, Hs68, Group 2 Table 1 entries
[6] = Human alphaherpesvirus 1, BHK-21, Group 2 Table 1 entries
[7] = Human betaherpesvirus 5, AD169, Hs68, Group 1 Table 2 entries
[8] = Human alphaherpesvirus 1, BHK-21, Group 1 Table 2 entries
[9] = Human alphaherpesvirus 1, BHK-21, Group 1 Table 1 entries
[10] = Human betaherpesvirus 5, AD169, Hs68, Group 1 Table 1 entries

T1 sequence (P10192 whole entry): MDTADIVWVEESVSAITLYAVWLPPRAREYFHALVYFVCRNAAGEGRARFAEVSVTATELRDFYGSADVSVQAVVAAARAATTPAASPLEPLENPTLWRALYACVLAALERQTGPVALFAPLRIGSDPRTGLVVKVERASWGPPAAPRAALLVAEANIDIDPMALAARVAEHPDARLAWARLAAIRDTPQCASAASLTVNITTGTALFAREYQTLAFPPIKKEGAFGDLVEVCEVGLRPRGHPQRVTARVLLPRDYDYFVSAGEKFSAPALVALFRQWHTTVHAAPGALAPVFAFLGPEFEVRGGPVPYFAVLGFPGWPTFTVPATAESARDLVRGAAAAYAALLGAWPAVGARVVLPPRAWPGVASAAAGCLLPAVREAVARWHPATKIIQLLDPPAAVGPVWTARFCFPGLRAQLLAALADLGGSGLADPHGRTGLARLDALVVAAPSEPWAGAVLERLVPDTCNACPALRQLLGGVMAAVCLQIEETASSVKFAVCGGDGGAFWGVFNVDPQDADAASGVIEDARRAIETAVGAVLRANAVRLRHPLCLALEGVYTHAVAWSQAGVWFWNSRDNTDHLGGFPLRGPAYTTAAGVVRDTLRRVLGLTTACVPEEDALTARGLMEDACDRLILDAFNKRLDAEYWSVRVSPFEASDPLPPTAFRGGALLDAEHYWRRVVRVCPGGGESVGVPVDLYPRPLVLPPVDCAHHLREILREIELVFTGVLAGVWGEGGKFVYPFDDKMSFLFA
T1 sequence (P10236 whole entry): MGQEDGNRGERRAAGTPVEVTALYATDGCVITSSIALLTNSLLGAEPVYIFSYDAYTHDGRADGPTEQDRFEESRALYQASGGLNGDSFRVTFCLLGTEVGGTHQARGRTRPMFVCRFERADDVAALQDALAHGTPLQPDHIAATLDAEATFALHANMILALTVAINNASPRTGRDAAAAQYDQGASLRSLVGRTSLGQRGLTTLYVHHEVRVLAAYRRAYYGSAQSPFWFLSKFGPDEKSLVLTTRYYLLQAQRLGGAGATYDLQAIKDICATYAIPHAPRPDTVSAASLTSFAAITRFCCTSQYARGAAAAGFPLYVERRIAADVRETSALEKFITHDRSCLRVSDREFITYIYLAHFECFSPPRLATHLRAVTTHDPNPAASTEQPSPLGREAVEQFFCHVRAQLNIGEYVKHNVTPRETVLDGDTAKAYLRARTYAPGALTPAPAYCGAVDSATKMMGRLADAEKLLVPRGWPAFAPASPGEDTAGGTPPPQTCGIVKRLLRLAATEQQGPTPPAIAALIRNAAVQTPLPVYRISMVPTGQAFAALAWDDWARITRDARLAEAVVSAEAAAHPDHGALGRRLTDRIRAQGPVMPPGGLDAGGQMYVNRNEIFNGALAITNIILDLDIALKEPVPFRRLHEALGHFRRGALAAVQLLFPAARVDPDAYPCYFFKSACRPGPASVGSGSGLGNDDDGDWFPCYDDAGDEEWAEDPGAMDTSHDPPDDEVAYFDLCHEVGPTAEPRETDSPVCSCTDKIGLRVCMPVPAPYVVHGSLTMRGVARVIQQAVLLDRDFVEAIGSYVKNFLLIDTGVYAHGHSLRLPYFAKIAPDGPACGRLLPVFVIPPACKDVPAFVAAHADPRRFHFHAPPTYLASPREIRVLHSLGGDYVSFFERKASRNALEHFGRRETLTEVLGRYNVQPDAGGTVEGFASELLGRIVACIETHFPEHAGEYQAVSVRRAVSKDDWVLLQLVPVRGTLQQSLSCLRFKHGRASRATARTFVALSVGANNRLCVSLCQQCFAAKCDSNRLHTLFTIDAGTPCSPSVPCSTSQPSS
T1 sequence (P10189 whole entry): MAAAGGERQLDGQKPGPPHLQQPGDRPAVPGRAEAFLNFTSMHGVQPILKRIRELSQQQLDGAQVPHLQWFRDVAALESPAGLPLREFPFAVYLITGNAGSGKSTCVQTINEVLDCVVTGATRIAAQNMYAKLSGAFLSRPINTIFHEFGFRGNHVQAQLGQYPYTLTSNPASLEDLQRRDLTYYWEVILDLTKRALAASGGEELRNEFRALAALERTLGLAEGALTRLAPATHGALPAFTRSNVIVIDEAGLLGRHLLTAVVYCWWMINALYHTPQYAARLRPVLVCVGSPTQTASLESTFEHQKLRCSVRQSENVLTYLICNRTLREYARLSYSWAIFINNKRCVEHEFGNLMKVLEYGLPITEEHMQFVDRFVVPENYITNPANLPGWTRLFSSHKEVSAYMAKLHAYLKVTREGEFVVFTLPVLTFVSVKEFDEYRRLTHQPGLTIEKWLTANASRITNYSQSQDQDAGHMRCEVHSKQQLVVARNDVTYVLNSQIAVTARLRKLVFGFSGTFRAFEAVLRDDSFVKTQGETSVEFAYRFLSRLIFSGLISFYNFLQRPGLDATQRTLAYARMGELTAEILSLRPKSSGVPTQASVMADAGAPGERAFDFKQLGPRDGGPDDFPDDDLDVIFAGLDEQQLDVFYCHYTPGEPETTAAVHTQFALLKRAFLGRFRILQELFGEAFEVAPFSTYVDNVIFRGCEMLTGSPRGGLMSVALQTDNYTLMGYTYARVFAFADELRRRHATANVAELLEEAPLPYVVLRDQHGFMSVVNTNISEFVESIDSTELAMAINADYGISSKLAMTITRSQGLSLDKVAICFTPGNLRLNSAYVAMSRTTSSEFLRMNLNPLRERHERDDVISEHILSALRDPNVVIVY

| SMILES | EC50 (HCMV (strain AD169) [2]; [5]) | IC50 (HSV-1 helicase-primase; Group 2 Table 1 entries) | MCC at 192 h ([3]; Group 2 Table 1 entries) | IC50 (HSV-1 helicase-primase; Group 1 Table 1 entries) | EC50 (HSV-1 strain F or KOS; [9]) | EC50 (HCMV (strain AD169) [1]; [10]) | further results |
| --- | --- | --- | --- | --- | --- | --- | --- |
| Nc1nc(-c2ccc(NC(=O)[C@H]3CCC(=O)N3Cc3ccccc3)cc2)cs1 [Example 1] |  |  |  |  |  |  | EC50 (HCMV (strain AD169) [1]; [4]): 0.25 µM; EC50 (HSV-1 strain F or KOS; Human alphaherpesvirus 1, BHK-21, Group 1 Table 6 entries): 3.4 µM; EC50 (HCMV (strain AD169) [2]; [4]): 80 µM |
| CCCCNC(=O)Nc1ccc(-c2csc(N)n2)cc1 [Example 2] | 12 µM |  |  |  |  |  | EC50 (HCMV (strain AD169) [1]; [5]): 0.6 µM; EC50 (HSV-1 strain F or KOS; [6]): 3.5 µM |
| Nc1nc(-c2ccc(NC(=O)NCCc3ccccn3)cc2)cs1 [Example 3] | > 93 µM | 5.2 µM | 93 µM |  |  |  | EC50 (HSV-1 strain F or KOS; [6]): 3.6 µM |
| CN(CCc1ccccn1)C(=O)[C@H](Cc1ccccc1)NC(=O)Nc1ccc(-c2csc(N)n2)cc1 [Example 9] | 36 µM |  |  |  |  |  | EC50 (HCMV (strain AD169) [1]; [5]): 4.1 µM; EC50 (HSV-1 strain F or KOS; [6]): 2.9 µM |
| Nc1nc(-c2ccc(NC(=O)CCNC3CCc4ccccc43)cc2)cs1 (stereo not shown) [Example 9] |  |  |  |  |  |  | EC50 (HCMV (strain AD169) [1]; [7]): 6 µM; EC50 (HSV-1 strain F or KOS; [8]): 0.95 µM; EC50 (HCMV (strain AD169) [2]; [7]): > 10.4 µM |
| Nc1nc(-c2ccc(NC(=O)NCCCn3ccnc3)cc2)cs1 [Example 10] | > 48 µM | 4.7 µM | 48 µM |  |  |  |  |
| Nc1nc(-c2ccc(NC(=O)CCN(C(=O)c3cccnc3)C3CCc4ccccc43)cc2)cs1 (stereo not shown) [Example 11] |  |  |  |  |  |  | EC50 (HCMV (strain AD169) [1]; [7]): 15 µM; EC50 (HSV-1 strain F or KOS; [8]): 4 µM; EC50 (HCMV (strain AD169) [2]; [7]): 20 µM |
| Nc1nc(-c2ccc(NC(=O)CNCc3ccccn3)cc2)cs1 [Example 12] |  |  |  | 8 µM | 1.5 µM |  | MCC at 192 h ([3]; Group 1 Table 1 entries): 84 µM; EC50 (HCMV (strain AD169) [2]; [10]): 84 µM |
| Nc1nc(-c2ccc(NC(=O)NCCN(Cc3ccccc3)Cc3ccccc3)cc2)cs1 [Example 16] | > 5 µM | 1.6 µM | 5 µM |  |  |  |  |
| Nc1nc(-c2ccc(NC(=O)NCc3ccccc3)cc2)cs1 [Example 20] | > 45 µM | 0.9 µM | 45 µM |  |  |  |  |
| Nc1nc(-c2ccc(NC(=O)NCc3ccc(Cl)cc3)cc2)cs1 [Example 21] | > 1 µM | 7.2 µM | 1 µM |  |  |  |  |
| Nc1nc(-c2ccc(NC(=O)NCc3cccc(F)c3)cc2)cs1 [Example 22] | > 8 µM | 1.3 µM | 8 µM |  |  |  |  |
| Nc1nc(-c2ccc(NC(=O)NCc3ccccc3F)cc2)cs1 [Example 23] | > 4 µM | 2 µM | 4 µM |  |  |  |  |
| Nc1nc(-c2ccc(NC(=O)NCCc3ccc(F)cc3)cc2)cs1 [Example 24] | > 5 µM | 30 µM | 5 µM |  |  |  |  |
| CN(C)c1ccc(CNC(=O)Nc2ccc(-c3csc(N)n3)cc2)cc1 [Example 25] | > 18 µM | 2.9 µM | 18 µM |  |  |  |  |
| C[C@H](NC(=O)Nc1ccc(-c2csc(N)n2)cc1)c1ccccc1 [Example 26] | > 74 µM | 0.59 µM | 74 µM |  |  |  |  |
| CC(C)(C)OC(=O)N(CCc1ccccn1)CC(=O)Nc1ccc(-c2csc(N)n2)cc1 [Example 101] |  |  |  | 2.2 µM | 0.74 µM | 1.9 µM |  |
| Nc1nc(-c2ccc(NC(=O)CN(CCC3CCCCC3)C(=O)C3CCCCC3)cc2)cs1 [Example 103] |  |  |  | 0.15 µM | 0.24 µM | > 41 µM |  |
| CN(C)S(=O)(=O)N(CC(=O)Nc1ccc(-c2csc(N)n2)cc1)Cc1ccccc1 [Example 106] |  |  |  | 1 µM | 0.16 µM | > 6 µM |  |
| Nc1nc(-c2ccc(NC(=O)CN(CC3CCCCC3)S(=O)(=O)N3CCOCC3)cc2)cs1 [Example 107] |  |  |  |  | 0.83 µM |  | MCC at 192 h ([3]; Group 1 Table 1 entries): 12 µM |
| Nc1nc(-c2ccc(NC(=O)CN(Cc3ccccc3)C(=O)OCc3ccccc3)cc2)cs1 [Example 109] |  |  |  | 0.31 µM | 0.2 µM | > 20 µM |  |
| CC(C)CN(CC(=O)Nc1ccc(-c2csc(N)n2)cc1)C(=O)OCc1ccccc1 [Example 110] |  |  |  | 3.2 µM | 1.6 µM | > 40 µM |  |
| Nc1nc(-c2ccc(NC(=O)CN(Cc3ccccc3)C(=O)Cc3cccnc3)cc2)cs1 [Example 113] |  |  |  | 2 µM |  |  | MCC at 192 h ([3]; Group 1 Table 1 entries): 50 µM; EC50 (HCMV (strain AD169) [2]; [10]): > 50 µM |
| CCCC(CCC)N(CC(=O)Nc1ccc(-c2csc(N)n2)cc1)C(=O)OCc1ccccc1 [Example 141] |  |  |  | 4 µM | 3.5 µM | > 121 µM |  |
| CC(C)(C)CN(CC(=O)Nc1ccc(-c2csc(N)n2)cc1)C(=O)OC(C)(C)C [Example 142] |  |  |  | 6.3 µM | 2.4 µM | 4 µM |  |
| Nc1nc(-c2ccc(NC(=O)CN(Cc3ccccc3)S(=O)(=O)NCc3ccccc3)cc2)cs1 [Example 143] |  |  |  | 0.8 µM | 1 µM | > 64 µM |  |
